# Reference: patent US20250144067A1, “PERSONALIZED STARVATION THERAPY FOR CANCER” (Faeth Therapeutics, Inc., priority 2021, published 2025)
# Where a name gives a salt, the structure may show the parent alone.
# Tested on: NCI-H292 lung cancer cells
# Test: FDA drug screening, complete media vs cholesterol-free media without statin (TABLE 1)
# Format: cell-based, human
# Conditions: Complete minus Cholesterol-free; […]
row,Compound,Difference
1,N#Cc1nn(-c2c(Cl)cc(C(F)(F)F)cc2Cl)c(N)c1[S+]([O-])C(F)(F)F (centres unmarked) [Fipronil],−0.22
2,Nc1nc(F)nc2c1ncn2[C@@H]1O[C@H](CO)[C@@H](O)[C@@H]1O [Fludarabine],−0.15

# Same assay, conditions: Complete minus Cholesterol-free; greater than 0 enhanced anti-cancer activity, about 0 neutral, below 0 antagonist
row,Compound,Difference
1,CS(=O)(=O)c1ccc([C@@H](O)[C@@H](CF)NC(=O)C(Cl)Cl)cc1 [Florfenicol],−0.13
2,CC(=O)[C@@]1(O)CC[C@H]2[C@@H]3C[C@H](C)C4=CC(=O)C=C[C@]4(C)[C@@]3(F)[C@@H](O)C[C@@]21C [Fluorometholone],−0.08

# Same assay, conditions: Complete minus Cholesterol-free; greater than 0 enhanced anti-cancer activity, about 0 neutral, below 0 antagonists
row,Compound,Difference
1,CCCCCCCCc1ccc(CCC(N)(CO)CO)cc1 [Fingolimod],−0.48

# Same assay, conditions: NCI-H292 cells in cholesterol-free media without statin
row,Compound,Cholesterol-free
1,CCCCCCCCc1ccc(CCC(N)(CO)CO)cc1 [Fingolimod],1.481

# Same assay, conditions: NCI-H292 cells in complete media
row,Compound,Complete
1,CCCCCCCCc1ccc(CCC(N)(CO)CO)cc1 [Fingolimod],0.9982

# Same assay, conditions: NCI-H292 cells, FDA drug library screen, cholesterol-free media without statin
row,Compound,Cholesterol-free
1,CS(=O)(=O)c1ccc([C@@H](O)[C@@H](CF)NC(=O)C(Cl)Cl)cc1 [Florfenicol],0.8542
2,Nc1nc(F)nc2c1ncn2[C@@H]1O[C@H](CO)[C@@H](O)[C@@H]1O [Fludarabine],1.174
3,CC(=O)[C@@]1(O)CC[C@H]2[C@@H]3C[C@H](C)C4=CC(=O)C=C[C@]4(C)[C@@]3(F)[C@@H](O)C[C@@]21C [Fluorometholone],1.249

# Same assay, conditions: NCI-H292 cells, FDA drug library screen, complete media
row,Compound,Complete
1,CS(=O)(=O)c1ccc([C@@H](O)[C@@H](CF)NC(=O)C(Cl)Cl)cc1 [Florfenicol],0.7262
2,Nc1nc(F)nc2c1ncn2[C@@H]1O[C@H](CO)[C@@H](O)[C@@H]1O [Fludarabine],1.022

# Same assay, conditions: NCI-H292 cells, cholesterol-free media without statin
row,Compound,Cholesterol-free
1,CC(C)(C)NC(=O)[C@H]1CC[C@H]2[C@@H]3CC[C@H]4NC(=O)C=C[C@]4(C)[C@H]3CC[C@]12C [Finasteride],1.209
2,CCCCCCCCc1ccc(CCC(N)(CO)CO)cc1 [Fingolimod (hydrochloride)],1.335
3,N#Cc1nn(-c2c(Cl)cc(C(F)(F)F)cc2Cl)c(N)c1[S+]([O-])C(F)(F)F (centres unmarked) [Fipronil],1.217
4,O=c1[nH]c2ccccc2n1CCN1CCN(c2cccc(C(F)(F)F)c2)CC1 [Flibanserin],1.364
5,OC(Cn1cncn1)(Cn1cncn1)c1ccc(F)cc1F [Fluconazole],1.23
6,Nc1[nH]c(=O)ncc1F [Flucytosine],1.247
7,O=C1OC2(c3ccc(O)cc3Oc3cc(O)ccc32)c2ccccc21 [Fluorescein],1.153
8,CC(=O)O[C@]1(C(C)=O)CC[C@H]2[C@@H]3C[C@H](C)C4=CC(=O)C=C[C@]4(C)[C@@]3(F)[C@@H](O)C[C@@]21C [Fluorometholone acetate],0.9866
9,CNCCC(Oc1ccc(C(F)(F)F)cc1)c1ccccc1 (centres unmarked) [Fluoxetine (hydrochloride)],1.383

# Same assay, conditions: NCI-H292 cells, cholesterol-free media without statin, FDA drug library screen
row,Compound,Cholesterol-free
1,COC(=O)Nc1nc2cc(C(=O)c3ccc(F)cc3)ccc2[nH]1 [Flubendazole],0.549

# Same assay, conditions: NCI-H292 cells, complete media
row,Compound,Complete
1,CC(C)(C)NC(=O)[C@H]1CC[C@H]2[C@@H]3CC[C@H]4NC(=O)C=C[C@]4(C)[C@H]3CC[C@]12C [Finasteride],0.7878
2,CCCCCCCCc1ccc(CCC(N)(CO)CO)cc1 [Fingolimod (hydrochloride)],0.8744
3,N#Cc1nn(-c2c(Cl)cc(C(F)(F)F)cc2Cl)c(N)c1[S+]([O-])C(F)(F)F (centres unmarked) [Fipronil],1
4,O=c1[nH]c2ccccc2n1CCN1CCN(c2cccc(C(F)(F)F)c2)CC1 [Flibanserin],0.9648
5,OC(Cn1cncn1)(Cn1cncn1)c1ccc(F)cc1F [Fluconazole],0.8337
6,Nc1[nH]c(=O)ncc1F [Flucytosine],0.8456
7,O=C1OC2(c3ccc(O)cc3Oc3cc(O)ccc32)c2ccccc21 [Fluorescein],0.6958
8,CC(=O)O[C@]1(C(C)=O)CC[C@H]2[C@@H]3C[C@H](C)C4=CC(=O)C=C[C@]4(C)[C@@]3(F)[C@@H](O)C[C@@]21C [Fluorometholone acetate],0.5758
9,CNCCC(Oc1ccc(C(F)(F)F)cc1)c1ccccc1 (centres unmarked) [Fluoxetine (hydrochloride)],0.9864

# Same assay, conditions: NCI-H292 cells, complete media, FDA drug library screen
row,Compound,Complete
1,COC(=O)Nc1nc2cc(C(=O)c3ccc(F)cc3)ccc2[nH]1 [Flubendazole],1.107

# Same assay, conditions: complete vs cholesterol-free media; >0 enhanced anti-cancer activity, about 0 neutral, <0 antagonist
row,Compound,Difference
1,COC(=O)Nc1nc2cc(C(=O)c3ccc(F)cc3)ccc2[nH]1 [Flubendazole],0.56

# Same assay, conditions: complete vs cholesterol-free media; greater than 0 enhanced anti-cancer activity, about 0 neutral, below 0 antagonists
row,Compound,Difference
1,CC(C)(C)NC(=O)[C@H]1CC[C@H]2[C@@H]3CC[C@H]4NC(=O)C=C[C@]4(C)[C@H]3CC[C@]12C [Finasteride],−0.42
2,CCCCCCCCc1ccc(CCC(N)(CO)CO)cc1 [Fingolimod (hydrochloride)],−0.46
3,O=c1[nH]c2ccccc2n1CCN1CCN(c2cccc(C(F)(F)F)c2)CC1 [Flibanserin],−0.40
4,OC(Cn1cncn1)(Cn1cncn1)c1ccc(F)cc1F [Fluconazole],−0.40
5,Nc1[nH]c(=O)ncc1F [Flucytosine],−0.40
6,O=C1OC2(c3ccc(O)cc3Oc3cc(O)ccc32)c2ccccc21 [Fluorescein],−0.46
7,CC(=O)O[C@]1(C(C)=O)CC[C@H]2[C@@H]3C[C@H](C)C4=CC(=O)C=C[C@]4(C)[C@@]3(F)[C@@H](O)C[C@@]21C [Fluorometholone acetate],−0.41
8,CNCCC(Oc1ccc(C(F)(F)F)cc1)c1ccccc1 (centres unmarked) [Fluoxetine (hydrochloride)],−0.40

# Tested on: NCI-H292 lung cancer cells
# Test: FDA drug screening, complete media vs cholesterol-free media with simvastatin (TABLE 2)
# Format: cell-based, human
# Conditions: NCI-H292 cells, FDA drug library screen, cholesterol-free media with simvastatin 0.04 μM
row,Compound,Cholesterol-free media + simvastatin (0.04 μM)
1,CCCCCCCCc1ccc(CCC(N)(CO)CO)cc1 [Fingolimod],1.233
2,CS(=O)(=O)c1ccc([C@@H](O)[C@@H](CF)NC(=O)C(Cl)Cl)cc1 [Florfenicol],1.137
3,CC(=O)O[C@]1(C(C)=O)CC[C@H]2[C@@H]3C[C@H](C)C4=CC(=O)C=C[C@]4(C)[C@@]3(F)[C@@H](O)C[C@@]21C [Fluorometholone acetate],0.6176
4,CNCCC(Oc1ccc(C(F)(F)F)cc1)c1ccccc1 (centres unmarked) [Fluoxetine (hydrochloride)],0.8887

# Same assay, conditions: NCI-H292 cells, FDA drug library screen, complete media
row,Compound,Complete Media
1,CCCCCCCCc1ccc(CCC(N)(CO)CO)cc1 [Fingolimod],1.097
2,CS(=O)(=O)c1ccc([C@@H](O)[C@@H](CF)NC(=O)C(Cl)Cl)cc1 [Florfenicol],0.997
3,CC(=O)O[C@]1(C(C)=O)CC[C@H]2[C@@H]3C[C@H](C)C4=CC(=O)C=C[C@]4(C)[C@@]3(F)[C@@H](O)C[C@@]21C [Fluorometholone acetate],0.9441
4,CNCCC(Oc1ccc(C(F)(F)F)cc1)c1ccccc1 (centres unmarked) [Fluoxetine (hydrochloride)],1.043

# Same assay, conditions: NCI-H292 cells, FDA library drug in cholesterol-free media with simvastatin 0.04 μM
row,Compound,Cholesterol-free media + simvastatin (0.04 μM)
1,OC(Cn1cncn1)(Cn1cncn1)c1ccc(F)cc1F [Fluconazole],1.268
2,Nc1[nH]c(=O)ncc1F [Flucytosine],1.754

# Same assay, conditions: NCI-H292 cells, FDA library drug in complete media
row,Compound,Complete Media
1,OC(Cn1cncn1)(Cn1cncn1)c1ccc(F)cc1F [Fluconazole],0.9392
2,Nc1[nH]c(=O)ncc1F [Flucytosine],1.475

# Same assay, conditions: NCI-H292 cells, cholesterol-free media with simvastatin 0.04 μM; FDA drug library screen (TABLE 2)
row,Compound,Cholesterol-free media + simvastatin (0.04 μM)
1,N#Cc1nn(-c2c(Cl)cc(C(F)(F)F)cc2Cl)c(N)c1[S+]([O-])C(F)(F)F (centres unmarked) [Fipronil],1.235
2,COC(=O)Nc1nc2cc(C(=O)c3ccc(F)cc3)ccc2[nH]1 [Flubendazole],1.122
3,Nc1nc(F)nc2c1ncn2[C@@H]1O[C@H](CO)[C@@H](O)[C@@H]1O [Fludarabine],1.255

# Same assay, conditions: NCI-H292 cells, cholesterol-free media with simvastatin 0.04 μM; cell growth value in FDA drug screen
row,Compound,Cholesterol-free media + simvastatin (0.04 μM)
1,CC(C)(C)NC(=O)[C@H]1CC[C@H]2[C@@H]3CC[C@H]4NC(=O)C=C[C@]4(C)[C@H]3CC[C@]12C [Finasteride],1.571
2,CCCCCCCCc1ccc(CCC(N)(CO)CO)cc1 [Fingolimod (hydrochloride)],0.9867
3,O=c1[nH]c2ccccc2n1CCN1CCN(c2cccc(C(F)(F)F)c2)CC1 [Flibanserin],1.01

# Same assay, conditions: NCI-H292 cells, complete media; FDA drug library screen (TABLE 2)
row,Compound,Complete Media
1,N#Cc1nn(-c2c(Cl)cc(C(F)(F)F)cc2Cl)c(N)c1[S+]([O-])C(F)(F)F (centres unmarked) [Fipronil],1.184
2,COC(=O)Nc1nc2cc(C(=O)c3ccc(F)cc3)ccc2[nH]1 [Flubendazole],1.079
3,Nc1nc(F)nc2c1ncn2[C@@H]1O[C@H](CO)[C@@H](O)[C@@H]1O [Fludarabine],1.187

# Same assay, conditions: NCI-H292 cells, complete media; cell growth value in FDA drug screen
row,Compound,Complete Media
1,CC(C)(C)NC(=O)[C@H]1CC[C@H]2[C@@H]3CC[C@H]4NC(=O)C=C[C@]4(C)[C@H]3CC[C@]12C [Finasteride],1.636
2,CCCCCCCCc1ccc(CCC(N)(CO)CO)cc1 [Fingolimod (hydrochloride)],1.023
3,O=c1[nH]c2ccccc2n1CCN1CCN(c2cccc(C(F)(F)F)c2)CC1 [Flibanserin],1.089

# Same assay, conditions: NCI-H292 cells, drug in cholesterol-free media with simvastatin 0.04 μM
row,Compound,Cholesterol-free media + simvastatin (0.04 μM)
1,O=C1OC2(c3ccc(O)cc3Oc3cc(O)ccc32)c2ccccc21 [Fluorescein],1.054
2,CC(=O)[C@@]1(O)CC[C@H]2[C@@H]3C[C@H](C)C4=CC(=O)C=C[C@]4(C)[C@@]3(F)[C@@H](O)C[C@@]21C [Fluorometholone],0.7423

# Same assay, conditions: NCI-H292 cells, drug in complete media
row,Compound,Complete Media
1,O=C1OC2(c3ccc(O)cc3Oc3cc(O)ccc32)c2ccccc21 [Fluorescein],0.8464
2,CC(=O)[C@@]1(O)CC[C@H]2[C@@H]3C[C@H](C)C4=CC(=O)C=C[C@]4(C)[C@@]3(F)[C@@H](O)C[C@@]21C [Fluorometholone],0.5602

# Same assay, conditions: complete media minus cholesterol-free media + simvastatin (0.04 μM); >0 enhanced anti-cancer activity, about 0 neutral, <0 antagonist
row,Compound,Difference
1,COC(=O)Nc1nc2cc(C(=O)c3ccc(F)cc3)ccc2[nH]1 [Flubendazole],−0.04

# Same assay, conditions: complete media minus cholesterol-free media + simvastatin (0.04 μM); […]
row,Compound,Difference
1,N#Cc1nn(-c2c(Cl)cc(C(F)(F)F)cc2Cl)c(N)c1[S+]([O-])C(F)(F)F (centres unmarked) [Fipronil],−0.05
2,Nc1nc(F)nc2c1ncn2[C@@H]1O[C@H](CO)[C@@H](O)[C@@H]1O [Fludarabine],−0.07

# Same assay, conditions: complete media minus cholesterol-free media + simvastatin; >0 enhanced anti-cancer activity, about 0 neutral, <0 antagonist
row,Compound,Difference
1,CC(C)(C)NC(=O)[C@H]1CC[C@H]2[C@@H]3CC[C@H]4NC(=O)C=C[C@]4(C)[C@H]3CC[C@]12C [Finasteride],0.06
2,CCCCCCCCc1ccc(CCC(N)(CO)CO)cc1 [Fingolimod (hydrochloride)],0.04
3,O=c1[nH]c2ccccc2n1CCN1CCN(c2cccc(C(F)(F)F)c2)CC1 [Flibanserin],0.08
4,CC(=O)O[C@]1(C(C)=O)CC[C@H]2[C@@H]3C[C@H](C)C4=CC(=O)C=C[C@]4(C)[C@@]3(F)[C@@H](O)C[C@@]21C [Fluorometholone acetate],0.33
5,CNCCC(Oc1ccc(C(F)(F)F)cc1)c1ccccc1 (centres unmarked) [Fluoxetine (hydrochloride)],0.15

# Same assay, conditions: complete media vs cholesterol-free media + simvastatin (0.04 μM); >0 enhanced anti-cancer activity, about 0 neutral, <0 antagonist
row,Compound,Difference
1,CCCCCCCCc1ccc(CCC(N)(CO)CO)cc1 [Fingolimod],−0.14
2,CS(=O)(=O)c1ccc([C@@H](O)[C@@H](CF)NC(=O)C(Cl)Cl)cc1 [Florfenicol],−0.14
3,OC(Cn1cncn1)(Cn1cncn1)c1ccc(F)cc1F [Fluconazole],−0.33
4,Nc1[nH]c(=O)ncc1F [Flucytosine],−0.28
5,O=C1OC2(c3ccc(O)cc3Oc3cc(O)ccc32)c2ccccc21 [Fluorescein],−0.21
6,CC(=O)[C@@]1(O)CC[C@H]2[C@@H]3C[C@H](C)C4=CC(=O)C=C[C@]4(C)[C@@]3(F)[C@@H](O)C[C@@]21C [Fluorometholone],−0.18
